According to patent publication US20080234262A1 (Wyeth, priority 2007, published 2008):

Experiments:
[1] = test system: prostate line LNCap; experiment: In vitro cell culture growth assay (MTS), LNCap; assay type: cell-based, human; details: LNCap cells, three days after drug treatment;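 further: viable cell density read by absorbance at 490 nm, growth expressed as percent of vehicle-treated cells on the same plate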
[2] = test system: breast line MDA468; experiment: In vitro cell culture growth assay (MTS), MDA468; assay type: cell-based, human; details: MDA468 cells, three days after drug treatment
Summary of the method: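 Three-day drug treatment starting 1 day post-plating; viable cells quantified via MTS metabolism (A490); effect normalised to in-plate vehicle controls as % growth.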

[3] = target: PI3K (Homo sapiens, UniProt P42336); experiment: Fluorescence polarization assay for PI3K; assay type: biochemical; details: PI3Kα; read-out: PI3Kα IC50;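 further: PI3K kinase reaction on PIP2 with ATP, 30-60 min, product sensed by GST-GRP with red probe in fluorescence polarization (mP), controls without enzyme and at zero time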
Chain of PI3K (P42336 whole entry): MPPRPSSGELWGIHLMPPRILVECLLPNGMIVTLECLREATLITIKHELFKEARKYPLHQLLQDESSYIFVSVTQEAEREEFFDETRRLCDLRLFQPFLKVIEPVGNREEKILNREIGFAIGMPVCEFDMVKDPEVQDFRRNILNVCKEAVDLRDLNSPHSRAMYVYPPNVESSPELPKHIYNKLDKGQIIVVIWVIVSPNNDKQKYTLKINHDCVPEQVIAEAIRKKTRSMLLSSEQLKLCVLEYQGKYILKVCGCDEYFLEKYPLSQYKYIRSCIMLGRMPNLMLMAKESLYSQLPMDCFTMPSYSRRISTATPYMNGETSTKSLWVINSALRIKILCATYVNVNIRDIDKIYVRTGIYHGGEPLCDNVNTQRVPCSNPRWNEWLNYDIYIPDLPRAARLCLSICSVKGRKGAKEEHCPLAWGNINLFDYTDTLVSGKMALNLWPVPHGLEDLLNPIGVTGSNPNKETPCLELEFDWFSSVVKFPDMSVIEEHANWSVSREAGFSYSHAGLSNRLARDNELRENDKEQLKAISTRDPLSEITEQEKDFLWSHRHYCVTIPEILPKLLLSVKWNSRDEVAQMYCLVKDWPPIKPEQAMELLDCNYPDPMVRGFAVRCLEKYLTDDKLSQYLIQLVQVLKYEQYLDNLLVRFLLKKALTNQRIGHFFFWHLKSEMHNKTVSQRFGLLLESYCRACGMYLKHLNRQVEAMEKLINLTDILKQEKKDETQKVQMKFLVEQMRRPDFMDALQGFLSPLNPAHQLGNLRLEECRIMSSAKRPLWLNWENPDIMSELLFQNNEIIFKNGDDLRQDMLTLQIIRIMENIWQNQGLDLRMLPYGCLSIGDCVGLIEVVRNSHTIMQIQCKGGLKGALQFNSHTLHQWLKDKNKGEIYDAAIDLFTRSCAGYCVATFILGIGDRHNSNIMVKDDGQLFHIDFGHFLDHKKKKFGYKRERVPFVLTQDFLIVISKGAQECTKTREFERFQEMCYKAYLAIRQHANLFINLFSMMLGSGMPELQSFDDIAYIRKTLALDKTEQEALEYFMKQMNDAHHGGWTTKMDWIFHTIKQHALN
Chain of PI3K (P27986 whole entry partner): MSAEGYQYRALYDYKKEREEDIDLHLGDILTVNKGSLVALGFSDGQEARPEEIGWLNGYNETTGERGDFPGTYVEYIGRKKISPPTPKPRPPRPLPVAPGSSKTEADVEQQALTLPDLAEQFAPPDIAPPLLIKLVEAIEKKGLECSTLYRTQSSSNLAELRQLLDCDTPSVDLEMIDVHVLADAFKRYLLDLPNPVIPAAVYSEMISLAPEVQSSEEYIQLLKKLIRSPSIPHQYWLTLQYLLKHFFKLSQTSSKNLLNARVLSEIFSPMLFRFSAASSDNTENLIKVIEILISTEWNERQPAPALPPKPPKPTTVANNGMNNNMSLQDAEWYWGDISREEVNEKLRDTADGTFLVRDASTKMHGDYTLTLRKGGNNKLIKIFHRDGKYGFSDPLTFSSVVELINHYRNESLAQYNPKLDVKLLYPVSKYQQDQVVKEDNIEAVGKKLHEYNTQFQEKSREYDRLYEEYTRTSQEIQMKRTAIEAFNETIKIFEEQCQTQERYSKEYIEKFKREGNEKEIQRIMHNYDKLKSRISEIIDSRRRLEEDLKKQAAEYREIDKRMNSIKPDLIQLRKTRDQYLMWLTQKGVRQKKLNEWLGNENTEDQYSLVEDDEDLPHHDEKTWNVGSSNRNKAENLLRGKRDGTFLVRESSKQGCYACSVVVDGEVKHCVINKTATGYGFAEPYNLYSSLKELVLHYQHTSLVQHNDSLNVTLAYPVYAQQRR

| Compound | IC50 ([1]; Homo sapiens, LNCaP, 72 h) | IC50 ([2]; Homo sapiens, 72 h) | IC50 [3] | IC50 [1] | IC50 [2] |
| --- | --- | --- | --- | --- | --- |
| O=C(NCCO)Nc1ccc(-c2nc(N3CCOCC3)c3cnn(C4CCN(C(=O)c5cccnc5)CC4)c3n2)cc1 [Compound 549, 1-(2-hydroxyethyl)-3-(4-{4-morpholin-4-yl-1-[1-(pyridin-3-ylcarbonyl)piperidin-4-yl]-1H-pyrazolo[3,4-d]pyrimidin-6-yl}phenyl)urea] | 7500 nM | 9000 nM | 220 nM |  |  |
| COC(=O)Nc1ccc(-c2nc(N3CCOCC3)c3cnn(C4CCN(Cc5ccc(Cl)cc5)CC4)c3n2)cc1 [Compound 695, methyl (4-{1-[1-(4-chlorobenzyl)piperidin-4-yl]-4-morpholin-4-yl-1H-pyrazolo[3,4-d]pyrimidin-6-yl}phenyl)carbamate] |  |  | 388 nM | 2000 nM | 9000 nM |
| CC(C)C(=O)N1CCC(n2ncc3c(N4CCOCC4)nc(-c4ccc(NC(=O)NCCF)cc4)nc32)CC1 [Compound 825, 1-(2-fluoroethyl)-3-{4-[1-(1-isobutyrylpiperidin-4-yl)-4-morpholin-4-yl-1H-pyrazolo[3,4-d]pyrimidin-6-yl]phenyl}urea] | 150 nM | 620 nM | 1670 nM |  |  |
| COC(=O)N1CCC(n2ncc3c(N4CCOCC4)nc(-c4ccc(NC(=O)Nc5ccc(F)cc5)cc4)nc32)CC1 [Compound 859, methyl 4-[6-(4-{[(4-fluorophenyl)carbamoyl]amino}phenyl)-4-morpholin-4-yl-1H-pyrazolo[3,4-d]pyrimidin-1-yl]piperidine-1-carboxylate] | 27 nM | 78 nM | 28 nM |  |  |
| COC(=O)Nc1ccc(-c2nc(N3CCOCC3)c3cnn(C4CCN(C(=O)OC(C)C)CC4)c3n2)cc1 [Compound 806, isopropyl 4-(6-{4-[(methoxycarbonyl)amino]phenyl}-4-morpholin-4-yl-1H-pyrazolo[3,4-d]pyrimidin-1-yl)piperidine-1-carboxylate] | 700 nM | 900 nM | 4550 nM |  |  |
| CC(C)(C)OC(=O)N1CCC(n2ncc3c(N4CCOCC4)nc(-c4ccc(NC(=O)Nc5cccnc5)cc4)nc32)CC1 [Compound 770, tert-butyl 4-(4-morpholin-4-yl-6-{4-[(pyridin-3-ylcarbamoyl)amino]phenyl}-1H-pyrazolo[3,4-d]pyrimidin-1-yl)piperidine-1-carboxylate] | 105 nM | 260 nM | 56 nM |  |  |
| NCCC(=O)Nc1ccc(-c2nc(N3CCOCC3)c3cn[nH]c3n2)cc1 [Compound 283] | 1500 nM | 13000 nM | 203 nM |  |  |
| CC(C)C(=O)N1CCC(n2ncc3c(N4CCOCC4)nc(-c4cccc(O)c4)nc32)CC1 [Example 29] | 400 nM | 1200 nM | 59 nM |  |  |
| CCCOC(=O)N1CCC(n2ncc3c(N4CCOCC4)nc(-c4ccc(NC(=O)NCCO)cc4)nc32)CC1 [Compound 855, propyl 4-[6-(4-{[(2-hydroxyethyl)carbamoyl]amino}phenyl)-4-morpholin-4-yl-1H-pyrazolo[3,4-d]pyrimidin-1-yl]piperidine-1-carboxylate] | 430 nM | 330 nM | 186 nM |  |  |
| O=C(NCC1CC1)Nc1ccc(-c2nc(N3CCOCC3)c3cnn(C4CCN(Cc5ccccc5)CC4)c3n2)cc1 [Example 262, 1-{4-[1-(1-benzylpiperidin-4-yl)-4-morpholin-4-yl-1H-pyrazolo[3,4-d]pyrimidin-6-yl]phenyl}-3-(cyclopropylmethyl)urea] | 700 nM | 3000 nM | 385 nM |  |  |
| CC(C)OC(=O)N1CCC(n2ncc3c(N4CCOCC4)nc(-c4ccc(NC(=O)Nc5ccncc5)cc4)nc32)CC1 [Compound 839, isopropyl 4-(4-morpholin-4-yl-6-{4-[(pyridin-4-ylcarbamoyl)amino]phenyl}-1H-pyrazolo[3,4-d]pyrimidin-1-yl)piperidine-1-carboxylate] | 27 nM | 68 nM | 37 nM |  |  |
| COC(=O)N1CCC(n2ncc3c(N4CCOCC4)nc(-c4ccc(NC(=O)Nc5ccc(F)nc5)cc4)nc32)CC1 [Compound 862, methyl 4-[6-(4-{[(6-fluoropyridin-3-yl)carbamoyl]amino}phenyl)-4-morpholin-4-yl-1H-pyrazolo[3,4-d]pyrimidin-1-yl]piperidine-1-carboxylate] | < 23 nM | < 88.5 nM | 107 nM |  |  |
| CS(=O)(=O)Nc1cccc(-c2nc(N3CCOCC3)c3cnn(C4CCN(Cc5ccccc5)CC4)c3n2)c1 [Compound 84] | 12000 nM | 12000 nM | 4200 nM |  |  |
| CNC(=O)Nc1ccc(-c2nc(N3CCOCC3)c3cnn(C4CCN(Cc5ccco5)CC4)c3n2)cc1 [Example 402, 1-(4-{1-[1-(2-furylmethyl)piperidin-4-yl]-4-morpholin-4-yl-1H-pyrazolo[3,4-d]pyrimidin-6-yl}phenyl)-3-methylurea] | 27 nM | 500 nM | 63 nM |  |  |
| CNC(=O)Nc1ccc(-c2nc(N3CCOCC3)c3cnn(C4CCN(C(=O)CC(=O)OC)CC4)c3n2)cc1 [Compound 757, methyl 3-[4-(6-{4-[(methylcarbamoyl)amino]phenyl}-4-morpholin-4-yl-1H-pyrazolo[3,4-d]pyrimidin-1-yl)piperidin-1-yl]-3-oxopropanoate] | 2000 nM | 1100 nM | 124 nM |  |  |
| O=C(NCCF)Nc1ccc(-c2nc(N3CCOCC3)c3cnn(C4CCN(C(=O)c5cccnc5)CC4)c3n2)cc1 [Example 303, 1-(2-fluoroethyl)-3-(4-{4-morpholin-4-yl-1-[1-(pyridin-3-ylcarbonyl)piperidin-4-yl]-1H-pyrazolo[3,4-d]pyrimidin-6-yl}phenyl)urea] | 630 nM | 500 nM | 541 nM |  |  |
| CC(C)OC(=O)N1CCC(n2ncc3c(N4CCOCC4)nc(-c4ccc(NC(=O)Nc5cccnc5)cc4)nc32)CC1 [Compound 838, isopropyl 4-(4-morpholin-4-yl-6-{4-[(pyridin-3-ylcarbamoyl)amino]phenyl}-1H-pyrazolo[3,4-d]pyrimidin-1-yl)piperidine-1-carboxylate] | 28 nM | 150 nM | 74 nM |  |  |
| CN(C)S(=O)(=O)c1cccc(-c2nc(N3CCOCC3)c3cnn(C4CCN(Cc5ccccc5)CC4)c3n2)c1 [Example 69] | 3100 nM | 4000 nM | 10500 nM |  |  |
| CCNC(=O)Nc1cc(F)c(-c2nc(N3CCOCC3)c3cnn(C4CCN(C(=O)c5cccnc5)CC4)c3n2)cc1F [Example 466, 1-(2,5-difluoro-4-{4-morpholin-4-yl-1-[1-(pyridin-3-ylcarbonyl)piperidin-4-yl]-1H-pyrazolo[3,4-d]pyrimidin-6-yl}phenyl)-3-ethylurea] | 1050 nM | 3300 nM | 3110 nM |  |  |
| CNCCNC(=O)Nc1ccc(-c2nc(N3CCOCC3)c3cnn(C4CCN(Cc5cccnc5)CC4)c3n2)cc1 [Example 342, 1-[2-(methylamino)ethyl]-3-(4-{4-morpholin-4-yl-1-[1-(pyridin-3-ylmethyl)piperidin-4-yl]-1H-pyrazolo[3,4-d]pyrimidin-6-yl}phenyl)urea] | 1200 nM | 1100 nM | 29 nM |  |  |
| CCCOC(=O)N1CCC(n2ncc3c(N4CCOCC4)nc(-c4ccc(NC(=O)NC)cc4)nc32)CC1 [Compound 751, propyl 4-(6-{4-[(methylcarbamoyl)amino]phenyl}-4-morpholin-4-yl-1H-pyrazolo[3,4-d]pyrimidin-1-yl)piperidine-1-carboxylate] | 34 nM | 110 nM | 106 nM |  |  |
| CCCOC(=O)N1CCC(n2ncc3c(N4CCOCC4)nc(-c4ccc(NC(=O)NCC5CC5)cc4)nc32)CC1 [Compound 858, propyl 4-[6-(4-{[(cyclopropylmethyl)carbamoyl]amino}phenyl)-4-morpholin-4-yl-1H-pyrazolo[3,4-d]pyrimidin-1-yl]piperidine-1-carboxylate] | 800 nM | 3200 nM | 2150 nM |  |  |
| CC(C)(C)COC(=O)N1CCC(n2ncc3c(N4CCOCC4)nc(-c4ccc(NC(=O)Nc5cccnc5)cc4)nc32)CC1 [Compound 877, 2,2-dimethylpropyl 4-(4-morpholin-4-yl-6-{4-[(pyridin-3-ylcarbamoyl)amino]phenyl}-1H-pyrazolo[3,4-d]pyrimidin-1-yl)piperidine-1-carboxylate] | 120 nM | 400 nM | 32 nM |  |  |
| CNCCNC(=O)Nc1ccc(-c2nc(N3CCOCC3)c3cnn(C4CCN(C(=O)c5cccnc5)CC4)c3n2)cc1 [Example 346, 1-[2-(methylamino)ethyl]-3-(4-{4-morpholin-4-yl-1-[1-(pyridin-3-ylcarbonyl)piperidin-4-yl]-1H-pyrazolo[3,4-d]pyrimidin-6-yl}phenyl)urea] | 5000 nM | 9000 nM | 45 nM |  |  |
| CN1CCC(n2ncc3c(N4CCOCC4)nc(-c4ccc5[nH]ccc5c4)nc32)CC1 [Compound 124] | 830 nM | 1700 nM | 843 nM |  |  |
| O=C(Nc1ccc(-c2nc(N3CCOCC3)c3cn[nH]c3n2)cc1)c1cccnc1 [Compound 278, N-[4-(4-morpholin-4-yl-1H-pyrazolo[3,4-d]pyrimidin-6-yl)phenyl]nicotinamide] | 7200 nM | 60000 nM | 1170 nM |  |  |
| CCNC(=O)Nc1ccc(-c2nc(N3CCOCC3)c3cnn(C4CCN(CC(F)(F)F)CC4)c3n2)cc1 [Compound 782, 1-ethyl-3-(4-{4-morpholin-4-yl-1-[1-(2,2,2-trifluoroethyl)piperidin-4-yl]-1H-pyrazolo[3,4-d]pyrimidin-6-yl}phenyl)urea] | 60 nM | 300 nM | 766 nM |  |  |
| O=C(Nc1ccc(-c2nc(N3CCOCC3)c3cnn(C4CCNCC4)c3n2)cc1)NC1CC1 [Compound 776, 1-cyclopropyl-3-[4-(4-morpholin-4-yl-1-piperidin-4-yl-1H-pyrazolo[3,4-d]pyrimidin-6-yl)phenyl]urea] | 1100 nM | 1100 nM | 442 nM |  |  |
